For three compounds, Ki results are on record in BindingDB's records for doi:10.1073/pnas.92.19.8734 (Massachusetts General Hospital, 1995).

The target of assay [1] is Melatonin receptor type 1A (Homo sapiens, UniProt P48039).
Assay [2] addresses T1, Melatonin receptor type 1B (Homo sapiens, UniProt P49286).
T1 sequence (P49286 whole entry): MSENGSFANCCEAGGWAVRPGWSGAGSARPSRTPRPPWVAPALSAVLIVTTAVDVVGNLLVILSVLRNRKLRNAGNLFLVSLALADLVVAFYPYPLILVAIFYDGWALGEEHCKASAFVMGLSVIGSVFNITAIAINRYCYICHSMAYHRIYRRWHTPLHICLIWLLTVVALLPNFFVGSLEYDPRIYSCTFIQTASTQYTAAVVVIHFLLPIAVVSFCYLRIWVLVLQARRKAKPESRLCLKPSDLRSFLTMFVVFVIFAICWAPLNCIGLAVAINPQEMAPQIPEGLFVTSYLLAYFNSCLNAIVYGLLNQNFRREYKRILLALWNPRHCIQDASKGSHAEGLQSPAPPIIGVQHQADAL

Melatonin receptor type 1A, sequence (P48039 whole entry): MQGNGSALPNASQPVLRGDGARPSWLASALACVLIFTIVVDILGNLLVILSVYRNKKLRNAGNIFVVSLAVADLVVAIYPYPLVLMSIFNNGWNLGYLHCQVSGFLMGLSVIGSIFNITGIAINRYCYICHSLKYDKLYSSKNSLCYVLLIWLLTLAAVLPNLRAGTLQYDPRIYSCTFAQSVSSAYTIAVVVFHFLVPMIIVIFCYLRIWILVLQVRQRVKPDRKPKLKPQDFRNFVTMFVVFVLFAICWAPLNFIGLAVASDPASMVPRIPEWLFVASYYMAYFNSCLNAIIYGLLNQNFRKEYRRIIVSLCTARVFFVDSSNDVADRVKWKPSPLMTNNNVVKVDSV

On to `CC(=O)n1cc(CCN)c2cc(O)ccc21` [NSC_260803], for which the Ki in assay [1] worked out at 986 nM; in assay [2], 595 nM. `NCCc1c[nH]c2ccc(O)cc12` [[3H]-5-HT]: in assay [2], the Ki is over 10000 nM. Regarding `COc1cc2nc(N3CCN(C(=O)c4ccco4)CC3)nc(N)c2cc1OC` [[3H]-Minipress], the Ki in assay [1] and in assay [2] was over 10000 nM throughout.
